Measurements as given in patent US20240300980A1, “HETEROCYCLIC COMPOUNDS AS KRAS INHIBITOR, AND PREPARATION THEREFOR AND USE THEREOF IN TREATMENT” (SHANGHAI KECHOW PHARMA, INC., priority 2021, published 2024).
pIC50: −log10 of the molar value.

The molecules below were run on AGS cells (KRAS^G12D) (assay: Detection of cell proliferation in vitro by MTT/MTS method (cell activity experiment)). Conditions: Homo sapiens, AGS, 72 h, AGS cells; MTT/MTS; 3 days of drug treatment; read-out: AGS IC50.
Format: cell-based
How it was run: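 After 3-day compound exposure (final DMSO 0.5%), viability of AGS (KRAS G12D) cells, plated 1000/well one day before dosing, was measured at 490 nm following 4 h MTT or MTS incubation. IC50 was fitted from dose–effect curves relative to DMSO-treated wells.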

Q: `Oc1ccc2c(C#Cc3ccc4c(N5C[C@H]6CC[C@@H](C5)N6)nc(OC[C@@]56CCCN5C[C@H](F)C6)nc4c3F)c(F)ccc2c1` [Example 367, 5-((4-((1R,5S)-3,8-diazabicyclo[3.2.1]octan-3-yl)-8-fluoro-2-(((2R,7aS)-2-fluorotetrahydro-1H-pyrrolizin-7a(5H)-yl)methoxy)quinazolin-7-yl)ethynyl)-6-fluoronaphthalen-2-ol] was tested. Which pIC50 did it give?
A: Its pIC50 is 6.71.

Q: How did the pIC50 turn out when `C#Cc1c(F)ccc2cc(O)cc(-c3ncc4c(N5C[C@H]6CC[C@@H](C5)N6)nc(OCC56CCCC5N(C)CC6)nc4c3F)c12` (stereo partly drawn) [Example 74, 4-(4-((1R,5S)-3,8-diazabicyclo [3.2.1]octan-3-yl)-8-fluoro-2-((1-methylhexahydrocyclo-penta[b]pyrrol-3a(1H)-yl)methoxy)pyrido[4,3-d]pyrimidin-7-yl)-5-ethynyl-6-fluoronaphthalen-2-ol] was run?
A: The pIC50 was less than 5.60.

Q: `C#Cc1c(F)ccc2cc(O)cc(-c3c4c(c5c(N6C[C@H]7CC[C@@H](C6)N7)nc(OC[C@@]67CCCN6C[C@H](F)C7)nc5c3F)CCC4)c12` [Example 379, 4-(1-((1R,5S)-3,8-diazabicyclo[3.2.1]octan-3-yl)-5-fluoro-3-(((2R,7aS)-2-fluorotetrahydro-1H-pyrrolizin-7a(5H)-yl)methoxy)-8,9-dihydro-7H-cyclopenta[f]quinazolin-6-yl)-5-ethynyl-6-fluoronaphthalen-2-ol] was tested. Which pIC50 did it give?
A: The pIC50 was 7.05.

Q: `C#Cc1c(F)ccc2cc(O)cc(-c3ncc4c(N5CCC(NS(C)(=O)=O)C5)nc(OC[C@@]56CCCN5C[C@H](F)C6)nc4c3F)c12` (stereo partly drawn) [Example 59, N-(1-(7-(8-ethynyl-7-fluoro-3-hydroxynaphthalen-1-yl)-8-fluoro-2-(((2R, 7aS)-2-fluorotetrahydro-1H-pyrrolizin-7a(5H)-yl)methoxy)pyrido[4,3-d]pyrimidin-4-yl)pyrrolidin-3-yl) methanesulfonamide] was tested. Which pIC50 did it give?
A: Its pIC50 is less than 5.60.

Q: `Oc1cc(-c2ccc3c(N4C[C@H]5CC[C@@H](C4)S5)nc(OC[C@@]45CCCN4C[C@H](F)C5)nc3c2F)c2c(F)c(F)ccc2c1` [Example 164, 4-(4-((1R,5S)-8-thia-3-azabicyclo[3.2.1]octan-3-yl)-8-fluoro-2-(((2R,7aS)-2-fluorotetrahydro-1H-pyrrolizin-7a(5H)-yl)methoxy)quinazolin-7-yl)-5,6-difluoronaphthalen-2-ol] was tested. Which pIC50 did it give?
A: The pIC50 was 6.52.

Q: How did the pIC50 turn out when `C#Cc1cccc2cc(O)cc(-c3ncc4c(N5C[C@H]6CC[C@@H](C5)N6)c(C#N)c(OC[C@@]56CCCN5C[C@H](F)C6)nc4c3F)c12` [Example 189, 4-((1R,5S)-3,8-diazabicyclo[3.2.1]octan-3-yl)-7-(8-ethynyl-3-hydroxynaphthalen-1-yl)-8-fluoro-2-(((2R,7aS)-2-fluorotetrahydro-1H-pyrrolizin-7a(5H)-yl)methoxy)-1,6-naphthyridine-3-carbonitrile] was run?
A: The pIC50 was 6.82.

Q: How did the pIC50 turn out when `CCc1cccc2cc(O)cc(-c3ccc4c(N5C[C@H]6CC[C@@H](C5)N6)c(C#N)c(OC[C@@]56CCCN5C[C@H](F)C6)nc4c3)c12` [Example 174, 4-((1R,5S)-3,8-diazabicyclo[3.2.1]octan-3-yl)-7-(8-ethyl-3-hydroxynaphthalen-1-yl)-2-(((2R,7aS)-2-fluorotetrahydro-1H-pyrrolizin-7a(5H)-yl)methoxy)quinoline-3-carbonitrile] was run?
A: The pIC50 was 5.84.

Q: With `C#Cc1c(F)ccc2cc(O)cc(-c3ccc4c(N5CCC6(CCCS6(=O)=O)CC5)nc(OC[C@@]56CCCN5C[C@H](F)C6)nc4c3F)c12` [Example 110, 8-(7-(8-ethynyl-7-fluoro-3-hydroxynaphthalen-1-yl)-8-fluoro-2-(((2R, 7aS)-2-fluorotetrahydro-1H-pyrrolizin-7a(5H)-yl)methoxy)quinazolin-4-yl)-1-thia-8-azaspiro [4.5]decane 1,1-dioxide] as the molecule, how does the pIC50 read?
A: Its pIC50 is less than 5.60.

Q: `C#Cc1c(F)ccc2cc(O)cc(-c3ccc4c(N5CC6CCC5CN6)nc(OC[C@@]56CCCN5C[C@H](F)C6)nc4c3F)c12` (stereo partly drawn) [Example 108, 4-(4-(2,5-diazabicyclo [2.2.2]octan-2-yl)-8-fluoro-2-(((2R,7aS)-2-fluorotetrahydro-1H-pyrrolizin-7a(5H)-yl)methoxy)quinazolin-7-yl)-5-ethynyl-6-fluoronaphthalen-2-ol] was tested. Which pIC50 did it give?
A: Its pIC50 is 7.39.
